Test results reported in ChEMBL document CHEMBL5154851, “Novel benzothiazole‒urea hybrids: Design, synthesis and biological activity as potent anti-bacterial agents against MRSA” (Eur J Med Chem, 2022).
Converted amounts (≈) assume the structure as drawn. The source made the active and inactive calls. No cut-off for these calls is given here.

Legend:
[1] = tested on: Staphylococcus aureus; assay: Antibiofilm activity against methicillin-resistant Staphylococcus aureus ATCC2858 assessed as minimal biofilm eradication concentration incubated for 24 hrs by crystal violet staining based assay; format: functional
[2] = tested on: Staphylococcus aureus; assay: Antibacterial activity against methicillin-resistant Staphylococcus aureus clinical isolate ATCC05107 incubated for 18 to 20 hrs by double dilution method; format: functional; conditions: time 18-20 hrs
[3] = tested on: Staphylococcus aureus; assay: Antibacterial activity against methicillin-resistant Staphylococcus aureus clinical isolate ATCC0101 incubated for 18 to 20 hrs by double dilution method; format: functional; conditions: time 18-20 hrs
[4] = tested on: Staphylococcus aureus; assay: Antibacterial activity against methicillin-resistant Staphylococcus aureus ATCC2858 incubated for 18 to 20 hrs by double dilution method; format: functional; conditions: time 18-20 hrs
[5] = tested on: Staphylococcus aureus; assay: Antibacterial activity against methicillin-resistant Staphylococcus aureus clinical isolate ATCC10105 incubated for 18 to 20 hrs by double dilution method; format: functional; conditions: time 18-20 hrs
[6] = tested on: Escherichia coli; assay: Antibacterial activity against Escherichia coli incubated for 18 to 20 hrs by double dilution method; format: functional; conditions: time 18-20 hrs
[7] = tested on: Candida albicans; assay: Antibacterial activity against Candida albicans ATCC10231 incubated for 18 to 20 hrs by double dilution method; format: functional; conditions: time 18-20 hrs
[8] = tested on: Pseudomonas aeruginosa; assay: Antibacterial activity against Pseudomonas aeruginosa incubated for 18 to 20 hrs by double dilution method; format: functional; conditions: time 18-20 hrs
[9] = tested on: Staphylococcus aureus; assay: Antibacterial activity against Staphylococcus aureus ATCC6538 incubated for 18 to 20 hrs by double dilution method; format: functional; conditions: time 18-20 hrs
[10] = tested on: HepG2; assay: Cytotoxicity against human HepG2 cells assessed as cell survival rate at 25 uM incubated for 24 hrs by MTT assay relative to control; format: functional
[11] = tested on: Staphylococcus aureus; assay: Antibacterial activity against methicillin-resistant Staphylococcus aureus ATCC2858 assessed as reduction in bacterial growth at 0.5 to 4 times of MIC measured after 4 to 8 hrs by time kill assay; format: functional, organism-based; conditions: time 4-8 hrs
[12] = tested on: Staphylococcus aureus; assay: Antibiofilm activity against methicillin-resistant Staphylococcus aureus ATCC2858 assessed as biofilm eradication at 0.049 to 100 uM incubated for 24 hrs by crystal violet staining based assay; format: functional, organism-based; conditions: dose 0.049-100 µM
[13] = Toxicity in overnight fasted ICR mouse assessed as change in body weight at 200 mg/kg, IG measured for 7 days; format: organism-based; conditions: in vivo, po, 168 h, time 7 day
[14] = Toxicity in overnight fasted ICR mouse assessed as change in appearance at 200 mg/kg, IG measured for 7 days; format: organism-based; conditions: in vivo, po, 168 h, time 7 day
[15] = Hepatotoxicity in C57BL/6J mouse assessed as central necrosis at 200 mg/kg, po measured after 24 hrs by hematoxylin and eosin staining based immunohistochemical analysis; format: toxicity, organism-based; conditions: in vivo
[16] = tested on: Cell membrane; assay: Induction of cell membrane damage in methicillin-resistant Staphylococcus aureus ATCC2858 at 2 times of MIC measured after 4 to 12 hrs by DAPI and propidium iodide staining based confocal laser scanning microscopy analysis; conditions: time 4-12 hrs
[17] = tested on: HepG2; assay: Cytotoxicity against human HepG2 cells assessed as cell survival rate at 50 uM incubated for 24 hrs by MTT assay relative to control; format: functional
[18] = tested on: Staphylococcus aureus; assay: Antibacterial activity against methicillin-resistant Staphylococcus aureus ATCC2858 infected in C57BL/6J mouse assessed as log reduction in bacterial titres in blood at 2 mg/kg, ip measured after 24 hrs; format: functional
[19] = tested on: Staphylococcus aureus; assay: Induction of drug resistance in methicillin-resistant Staphylococcus aureus ATCC2858 assessed as fold increase in MIC measured after 19 passage by broth dilution assay; format: functional; conditions: time 19.0 day
[20] = Toxicity in overnight fasted ICR mouse assessed as change in activity at 200 mg/kg, IG measured for 7 days; format: organism-based; conditions: in vivo, po, 168 h, time 7 day
[21] = tested on: Staphylococcus aureus; assay: Antibiofilm activity against methicillin-resistant Staphylococcus aureus ATCC2858 assessed as biofilm eradication incubated for 24 hrs by crystal violet staining based assay; format: functional, organism-based; conditions: dose 0.049-100 µM, DDE = dose-dependent effect
[22] = tested on: Staphylococcus aureus; assay: Antibacterial activity against methicillin-resistant Staphylococcus aureus ATCC2858 infected in C57BL/6J mouse assessed as log reduction in bacterial titres in blood at 5 mg/kg, ip measured after 24 hrs; format: functional
[23] = tested on: Staphylococcus aureus; assay: Induction of drug resistance in methicillin-resistant Staphylococcus aureus ATCC2858 assessed as fold increase in MIC measured over 20 passage by broth dilution assay; format: functional; conditions: time 20.0 day
[24] = Hepatotoxicity in C57BL/6J mouse assessed as steatosis in hepatic hilum at 200 mg/kg, po measured after 24 hrs by hematoxylin and eosin staining based immunohistochemical analysis; format: toxicity, organism-based; conditions: in vivo

SMILES	MIC [4]	MIC [6]	MIC [7]	MIC [8]	MIC [9]	also measured
CN[C@H](CC(C)C)C(=O)N[C@H]1C(=O)N[C@@H](CC(N)=O)C(=O)N[C@H]2C(=O)N[C@H]3C(=O)N[C@H](C(=O)N[C@H](C(=O)O)c4cc(O)cc(O)c4-c4cc3ccc4O)[C@H](O)c3ccc(c(Cl)c3)Oc3cc2cc(c3O[C@@H]2O[C@H](CO)[C@@H](O)[C@H](O)[C@H]2O[C@H]2C[C@](C)(N)[C@H](O)[C@H](C)O2)Oc2ccc(cc2Cl)[C@H]1O [VANCOMYCIN]	0.78 µM (≈ 1.13 µg/mL)					MBEC [1]: 7 µM; MIC [2]: 1.56 µM (≈ 2.26 µg/mL); MIC [3]: 0.78 µM (≈ 1.13 µg/mL); MIC [5]: 1.56 µM (≈ 2.26 µg/mL)
O=C(Nc1ccc(Sc2nc3ccccc3s2)c(Cl)c1)N1CCCC1	> 200 µM	> 200 µM	> 200 µM	> 200 µM	> 200 µM	
O=C(Nc1ccc(C(F)(F)F)cc1)Nc1ccc(Sc2nc3cc(Cl)ccc3s2)c(Cl)c1	0.78 µM (≈ 0.401 µg/mL)	> 200 µM	> 200 µM	> 200 µM	0.39 µM (≈ 0.201 µg/mL)	
O=C(Nc1ccc(Sc2nc3ccccc3s2)c(Cl)c1)Nc1ccc(Cl)cc1Cl	0.78 µM (≈ 0.375 µg/mL)	> 200 µM	> 200 µM	> 200 µM	0.78 µM (≈ 0.375 µg/mL)	
CC(=O)NC[C@H]1CN(c2ccc(N3CCOCC3)c(F)c2)C(=O)O1 [LINEZOLID]	6.25 µM (≈ 2.11 µg/mL)	> 50 µM		> 50 µM	3.12 µM (≈ 1.05 µg/mL)	
O=C(Nc1ccc(Br)cc1)Nc1ccc(Sc2nc3ccccc3s2)c(Cl)c1	0.78 µM (≈ 0.383 µg/mL)	> 200 µM	> 200 µM	> 200 µM	0.78 µM (≈ 0.383 µg/mL)	
O=C(Nc1ccc(Sc2nc3ccccc3s2)cc1)Nc1ccc(C(F)(F)F)cc1	0.39 µM (≈ 0.174 µg/mL)	> 200 µM	> 200 µM	> 200 µM	0.39 µM (≈ 0.174 µg/mL)	MBEC [1]: 5 µM; Activity [10]: >75%; Activity [11]: Active; Activity [12]: Active; MIC [2]: 0.78 µM (≈ 0.347 µg/mL); MIC [3]: 0.78 µM (≈ 0.347 µg/mL); MIC [5]: 0.39 µM (≈ 0.174 µg/mL)
O=C(Nc1ccc(Sc2nc3ccccc3s2)cc1)Nc1ccc(F)c(F)c1	0.78 µM (≈ 0.323 µg/mL)	> 200 µM	> 200 µM	> 200 µM	0.39 µM (≈ 0.161 µg/mL)	MIC [2]: 3.12 µM (≈ 1.29 µg/mL); MIC [3]: 1.56 µM (≈ 0.645 µg/mL); MIC [5]: 1.56 µM (≈ 0.645 µg/mL)
O=C(Nc1ccc(Sc2nc3ccccc3s2)c(Cl)c1)N1CCOCC1	> 200 µM	> 200 µM	> 200 µM	> 200 µM	> 200 µM	
O=C(Nc1ccc(Sc2nc3ccccc3s2)cc1)N1CCOCC1	200 µM (≈ 74.3 µg/mL)	> 200 µM	> 200 µM	> 200 µM	200 µM (≈ 74.3 µg/mL)	
O=C(Nc1ccc(F)c(F)c1)Nc1ccc(Sc2nc3cc(Cl)ccc3s2)c(Cl)c1	0.78 µM (≈ 0.376 µg/mL)	> 200 µM	> 200 µM	> 200 µM	0.39 µM (≈ 0.188 µg/mL)	MBEC [1]: 4 µM; Activity [13]: Non-Toxic; Activity [14]: Non-Toxic; Activity [15]: Non-Toxic; Activity [16]: Active; Activity [17]: 50%; log(activity) [18]: 1.9; fold change (FC) [19]: 256; Activity [10]: >75%; Activity [20]: Non-Toxic; Activity [21]: Dde; log(activity) [22]: 2.4; Activity [11]: Active; fold change (FC) [23]: 64; MIC [2]: 1.56 µM (≈ 0.752 µg/mL); MIC [3]: 1.56 µM (≈ 0.752 µg/mL); Activity [24]: Non-Toxic; MIC [5]: 0.78 µM (≈ 0.376 µg/mL)
CN1CCN(C(=O)Nc2ccc(Sc3nc4ccccc4s3)c(Cl)c2)CC1	100 µM (≈ 41.9 µg/mL)	200 µM (≈ 83.8 µg/mL)	200 µM (≈ 83.8 µg/mL)	200 µM (≈ 83.8 µg/mL)	100 µM (≈ 41.9 µg/mL)	
CO[C@@]1(NC(=O)Cc2cccs2)C(=O)N2C(C(=O)O)=C(COC(N)=O)CS[C@@H]21 [CEFOXITIN]	100 µM (≈ 42.7 µg/mL)	50 µM (≈ 21.4 µg/mL)		> 200 µM	25 µM (≈ 10.7 µg/mL)	
CC1COc2c(N3CCN(C)CC3)c(F)cc3c(=O)c(C(=O)O)cn1c23 (stereo not drawn) [OFLOXACIN]	1.56 µM (≈ 0.564 µg/mL)	0.39 µM (≈ 0.141 µg/mL)		1.56 µM (≈ 0.564 µg/mL)	0.78 µM (≈ 0.282 µg/mL)	MBEC [1]: 3 µM
O=C(Nc1ccccc1C(F)(F)F)N1CCC(Sc2nc3ccccc3s2)CC1	3.12 µM (≈ 1.37 µg/mL)	> 200 µM	> 200 µM	> 200 µM	3.12 µM (≈ 1.37 µg/mL)	
O=C(Nc1ccc(Sc2nc3ccccc3s2)c(Cl)c1)Nc1ccccc1C(F)(F)F	3.12 µM (≈ 1.5 µg/mL)	> 200 µM	> 200 µM	> 200 µM	3.12 µM (≈ 1.5 µg/mL)	
O=C(Nc1ccc(F)cc1)Nc1ccc(Sc2nc3ccccc3s2)c(Cl)c1	1.56 µM (≈ 0.671 µg/mL)	> 200 µM	> 200 µM	> 200 µM	0.78 µM (≈ 0.335 µg/mL)	
O=C(NCc1ccccc1Cl)Nc1ccc(Sc2nc3ccccc3s2)c(Cl)c1	> 200 µM	> 200 µM	> 200 µM	> 200 µM	> 200 µM	
O=C(Nc1ccc(C(F)(F)F)cc1)Nc1ccc(Sc2nc3ccccc3s2)c(Cl)c1	0.78 µM (≈ 0.374 µg/mL)	> 200 µM	> 200 µM	> 200 µM	0.39 µM (≈ 0.187 µg/mL)	MBEC [1]: 5 µM; Activity [17]: 20%; Activity [10]: >75%; Activity [12]: Active; MIC [2]: 1.56 µM (≈ 0.749 µg/mL); MIC [3]: 0.78 µM (≈ 0.374 µg/mL); MIC [5]: 1.56 µM (≈ 0.749 µg/mL)
O=C(Nc1ccc(Sc2nc3ccccc3s2)c(Cl)c1)N1CCSC1	> 200 µM	> 200 µM	> 200 µM	> 200 µM	> 200 µM	
